The values below come from patent US9366677B2, “Methods for analyzing biological macromolecular complexes and use thereof” (Max-Planck-Gesellshaft zur Foerderung der Wissenschaften …, priority 2011, dated 2016).

The target of this test is GroEL/GroES (Escherichia coli, UniProt P0A6F5). Description: Thermofluor (DSF) unfolding of equimolar GroEL/GroES with adenine nucleotides. Particulars: in the presence of the nucleotide. The test is classed as binding. The text has this: In a next proof of principle for the validity of the method according to the present invention, it has been determined whether thermal unfolding was suitable to find small molecules, which stabilize molecular machines similarly as has been documented for single-domain proteins (Ericsson et al. 2006, Analytical Biochemistry, 357:289-298). For this the GroEL/GroES (homo-tetradecameric 800 kDa and homo-heptameric 70 kDa, respectively) chaperonin system has been analysed. Two important properties of the chaperonin system have been well documented in the literature (Sigler et al., 1998, Annual Reviews in Biochemistry, 67:581-608; Tang et al., 2006, Cell, 125:908-914). First, GroEL forms a double heptameric ring structure, which exposes hydrophobic residues on one face, where non-native substrate protein can bind. Second, the binding of adenine-nucleotides to GroEL induces a conformational change, which causes the previously exposed hydrophobic residues to be buried and is essential for GroES binding to one face of the GroEL double ring. Therefore, measurements according to the present invention of an equimolar GroEL/GroES should yield a high initial fluorescence owing to the solvent-exposed hydrophobic residues, which gradually decreases upon temperature ramping. […]
A general note: In DSF a fluorescence change marks the thermal transition of the protein.

Entries after “also recorded” stand apart in the source; their conditions may differ.

Chain of GroEL/GroES (P0A6F9 whole entry): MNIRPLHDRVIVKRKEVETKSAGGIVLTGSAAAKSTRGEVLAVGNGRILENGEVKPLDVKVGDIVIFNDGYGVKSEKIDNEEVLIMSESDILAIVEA
Chain of GroEL/GroES (P0A6F5 2-548): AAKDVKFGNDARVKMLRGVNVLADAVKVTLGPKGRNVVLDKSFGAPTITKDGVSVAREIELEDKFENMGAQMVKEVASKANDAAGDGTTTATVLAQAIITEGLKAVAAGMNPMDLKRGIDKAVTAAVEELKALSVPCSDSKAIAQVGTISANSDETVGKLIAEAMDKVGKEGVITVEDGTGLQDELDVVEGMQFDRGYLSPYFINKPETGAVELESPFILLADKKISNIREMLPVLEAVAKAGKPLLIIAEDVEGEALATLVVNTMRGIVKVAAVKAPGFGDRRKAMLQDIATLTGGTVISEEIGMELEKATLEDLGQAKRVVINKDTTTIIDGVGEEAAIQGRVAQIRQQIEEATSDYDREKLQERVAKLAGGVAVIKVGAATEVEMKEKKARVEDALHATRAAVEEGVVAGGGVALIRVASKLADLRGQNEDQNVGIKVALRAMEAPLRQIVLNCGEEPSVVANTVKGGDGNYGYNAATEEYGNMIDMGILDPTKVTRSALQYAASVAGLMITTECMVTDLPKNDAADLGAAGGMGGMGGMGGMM

For `Nc1ncnc2c1ncn2[C@H]1C[C@H](O)[C@@H](COP(=O)(O)OP(=O)(O)OP(=O)(O)O)O1` [dATP], the “unfolding transition of GroEL/GroES (complex formation)” value is given as “complexes are formed; also recorded: single—apparent two-state—unfolding transition”.

As for `Nc1ncnc2c1ncn2[C@@H]1O[C@H](COP(=O)(O)OP(=O)(O)OP(=O)(O)O)[C@@H](O)[C@H]1O` [ATP], the “unfolding transition of GroEL/GroES (complex formation)” value is “complexes are formed; also recorded: single—apparent two-state—unfolding transition”.
